Laboratory results as given in the NIST ThermoML archive (doi:10.1021/je050005h).

Experiments:
[1] = 101 kPa, Liquid
[2] = xn = mol fraction of the nth substance listed; details: 101 kPa, Liquid

C1CCNCC1 [piperidine]
[1]
Details	kinematic viscosity [m2/s]	mass density [kg/m3]
293.15 K	1.79e-06	863.81
303.15 K	1.49e-06	854.5
313.15 K	1.25e-06	845.08
323.15 K	1.06e-06	835.56

C1CCNCC1 [piperidine] + O
[2]
Details	kinematic viscosity, 293.15 K [m2/s]	kinematic viscosity, 303.15 K [m2/s]	kinematic viscosity, 313.15 K [m2/s]	kinematic viscosity, 323.15 K [m2/s]	mass density, 293.15 K [kg/m3]	mass density, 303.15 K [kg/m3]	mass density, 313.15 K [kg/m3]	mass density, 323.15 K [kg/m3]
x1 = 0.0055	1.11e-06	8.82e-07	7.18e-07	5.98e-07	997.07	994.34	990.68	986.17
x1 = 0.011	1.21e-06	9.53e-07	7.72e-07	6.36e-07	995.89	992.89	989.03	984.42
x1 = 0.028	1.5e-06	1.2e-06	9.42e-07	8.12e-07	992.43	987.87	982.66	976.92
x1 = 0.0573	2.2e-06	1.74e-06	1.33e-06	1.07e-06	985.56	979.56	973.25	966.6
x1 = 0.0986	3.55e-06	2.55e-06	1.88e-06	1.47e-06	974.58	967.57	960.35	952.86
x1 = 0.1795	5.94e-06	4.01e-06	2.81e-06	2.14e-06	955.67	947.6	939.32	930.84
x1 = 0.2672	7.62e-06	5.06e-06	3.48e-06	2.62e-06	940.18	931.55	922.71	913.66
x1 = 0.3536	8.02e-06	5.42e-06	3.71e-06	2.68e-06	927.85	918.89	909.73	900.37
x1 = 0.4387	7.04e-06	4.97e-06	3.49e-06	2.53e-06	917.5	908	899	889
x1 = 0.5225	6.09e-06	4.37e-06	3.1e-06	2.31e-06	906.51	897.28	887.84	878.22
x1 = 0.6458	4.49e-06	3.22e-06	2.33e-06	1.83e-06	892.99	883.65	874.16	864.51
x1 = 0.8454	–	–	–	–	875.08	865.74	856.27	846.67
x1 = 0.8455	2.6e-06	2e-06	1.62e-06	1.31e-06	–	–	–	–
x1 = 1	1.79e-06	1.49e-06	1.25e-06	1.06e-06	863.81	854.5	845.08	835.56

C1CCNC1 [pyrrolidine]
[1]
Details	kinematic viscosity [m2/s]	mass density [kg/m3]
293.15 K	9.54e-07	859.87
303.15 K	8.27e-07	850.11
313.15 K	7.43e-07	840.24
323.15 K	6.41e-07	833.88

C1CCNC1 [pyrrolidine] + O
[2]
Details	kinematic viscosity, 293.15 K [m2/s]	kinematic viscosity, 303.15 K [m2/s]	kinematic viscosity, 313.15 K [m2/s]	kinematic viscosity, 323.15 K [m2/s]	mass density, 293.15 K [kg/m3]	mass density, 303.15 K [kg/m3]	mass density, 313.15 K [kg/m3]	mass density, 323.15 K [kg/m3]
x1 = 0.0057	–	–	–	–	997.13	994.41	990.83	986.46
x1 = 0.0101	–	–	–	–	996.33	993.49	989.78	985.31
x1 = 0.0221	1.44e-06	1.12e-06	8.8e-07	7.63e-07	994.47	991.12	986.92	982
x1 = 0.0678	2.47e-06	1.76e-06	1.34e-06	1.06e-06	989.46	983.41	976.91	970.03
x1 = 0.1158	3.52e-06	2.42e-06	1.77e-06	1.36e-06	980.95	973.19	965.26	957.15
x1 = 0.2076	4.53e-06	3.15e-06	2.27e-06	1.73e-06	962.31	953.57	944.65	935.51
x1 = 0.3039	4.78e-06	3.34e-06	2.46e-06	1.87e-06	943.39	934.33	925.06	915.6
x1 = 0.3958	4.36e-06	3.13e-06	2.31e-06	1.79e-06	928.64	919.34	909.83	900.11
x1 = 0.4834	3.64e-06	2.73e-06	2.08e-06	1.61e-06	917.04	907.58	897.92	888.05
x1 = 0.5671	2.99e-06	2.24e-06	1.76e-06	1.39e-06	906.1	896	886.2	877.7
x1 = 0.6858	2.13e-06	1.71e-06	1.37e-06	1.12e-06	893.17	883.53	873.7	863.68
x1 = 0.8675	1.31e-06	1.07e-06	9.13e-07	7.84e-07	872.39	862.69	852.81	846.3
x1 = 1	9.54e-07	8.27e-07	7.43e-07	6.41e-07	859.87	850.11	840.24	833.88

O [water] + C1CCNC1
[2], x2 = 0
Details	kinematic viscosity [m2/s]	mass density [kg/m3]
293.15 K	9.9e-07	–
303.15 K	8.1e-07	–
313.15 K	6.66e-07	–
323.15 K	5.61e-07	988.02

O [water] + C1CCNCC1
[2], x2 = 0
Details	kinematic viscosity [m2/s]	mass density [kg/m3]
293.15 K	9.9e-07	–
303.15 K	8.1e-07	–
313.15 K	6.66e-07	–
323.15 K	5.61e-07	988.02
